Here are results for six molecules from US20030092613A1, “Alpha7 nicotinic receptor peptides as ligands for beta amyloid peptides” (priority 2000, published 2003).

For data set [1], the system named is Biotin-huma7-5. Details: species or system human. The note with it: read-out: IC50, 125I-α-BTX binding to Biotin-huma7-5.
Data set [2] addresses huma7 peptide / β-amyloid1-40 (Homo sapiens, UniProt P36544). Briefly: Huma7 binding assay: 125I-β-amyloid1-40 binding to immobilized huma7 peptide.
The subject of data set [3] is Biotin-huma7-5. Briefly: Fluo-β-amyloid1-42 binding assay to Biotin-huma7-5. Details: species or system human.
The next data set has as its target T1, α7nAChR (Homo sapiens, UniProt P36544).
T1 construct: expressed in transfected cells; host or cells: SK-N-MC (ATCC HTB-10), membranes
Briefly: α7nAChR binding assay: 125I-β-amyloid1-40 binding to α7SK-N-MC membranes (SPA). The note with it: inhibition of 125I-β-amyloid1-40 (20 pM) binding to α7SK-N-MC membranes. The procedure:
α7nAChR (nicotinic acetylcholine receptor) binding assay: Membranes from recombinant SK-N-MC cells (ATCC#HTB-10) overexpressing α7nAChR (α7SK-N-MC) were prepared according to standard procedures (Wang et al, J. Biol Chem. 275, 5626-5632, 2000) except that the membranes were thoroughly washed. For each assay, membranes (20 μg) were precoupled to wheat germ agglutinin yittrium SPA beads (250 μg, Amersham) in 50 mM HEPES (pH 7.5) containing 0.01% BSA, 2 mM Mg^2+, 2 mM Ca^2+ and protease inhibitors (Boehringer Mannheim, Germany). […] At the end of the incubation (30 min), bound radioactivity was measured in a TopCount (Packard, Meriden, Conn.). Data were analyzed using Graphpad Prism software (Graphpad Software Incorporated).

In data set [4] the test system is guinea pig hippocampal synaptosomes. Briefly: ACh release from guinea pig hippocampal synaptosomes (β-amyloid inhibition of K+-evoked release). The data set is classed as cell-based. Conditions: attenuation of β-amyloid's inhibition on potassium-evoked ACh release. The procedure: ACh release from guinea pig hippocampal synaptosomes: Synaptosomes (P2 fraction) were prepared from guinea pig hippocampus as described previously and re-suspended in a Krebs-Ringer solution containing 0.1 μM [methyl-^3H]choline chloride (NEN, Boston, Mass.) and incubated at 37° C. for 30 min. Unincorporated choline was removed by washing and the synaptosomes were resuspended in Krebs-Ringer solution to 10 mg/mL. ACh release from synaptosomes was measured using the parallel superfusion chambers (Hugo Sachs Elektronik, March-Hugstetten, Germany) according to that described earlier (Wang, H. -Y. et al Neuropeptides 1999; 33, 197-205). […]
The tissues were treated with peptides and ACh release was evoked by superfusing with 65 mM K^+-Krebs-Ringer (made by equimolar replacement of NaCl with KCl) for 30 seconds. […] The amount of ^3H in the superfusate samples was measured by liquid scintillation spectrometry.
Tritiurn efflux into the superfusate was calculated as the fraction of ^3H content in the synaptosomes at the onset of the respective collection period. […]
Data are expressed as the mean fractional ^3H release±S.E.M. Statistical differences between treatments were tested by Student's t test, two-tailed or the two-factor ANOVA as appropriate. Individual differences in the dose-response curve were evaluated by the Newman-Keuls multiple comparison test.

[5] abbreviates: first phase, read-out: Calculated EC50 for biphasic response, EC50 - 1.
[6] abbreviates: second phase, read-out: Calculated EC50 for biphasic response, EC50 - 2.

Where two headings read alike, the source gives them in different places.

T1 sequence (P36544 23-502): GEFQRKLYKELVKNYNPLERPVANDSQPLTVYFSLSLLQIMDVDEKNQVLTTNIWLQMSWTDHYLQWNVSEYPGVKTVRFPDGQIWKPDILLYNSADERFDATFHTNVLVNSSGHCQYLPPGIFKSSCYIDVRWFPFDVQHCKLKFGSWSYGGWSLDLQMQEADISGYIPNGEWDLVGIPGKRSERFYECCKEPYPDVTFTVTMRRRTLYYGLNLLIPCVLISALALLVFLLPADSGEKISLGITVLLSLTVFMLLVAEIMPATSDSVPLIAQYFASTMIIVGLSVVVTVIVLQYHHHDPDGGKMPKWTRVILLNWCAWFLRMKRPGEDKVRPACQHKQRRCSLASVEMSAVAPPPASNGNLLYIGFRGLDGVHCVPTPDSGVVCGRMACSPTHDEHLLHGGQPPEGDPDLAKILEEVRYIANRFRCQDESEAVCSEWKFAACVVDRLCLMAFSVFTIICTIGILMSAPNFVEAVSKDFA
huma7 peptide / β-amyloid1-40, sequence (P36544 193-224): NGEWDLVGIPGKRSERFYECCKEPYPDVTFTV

In general, IC50 refers to the concentration at which inhibition is half-maximal. With `CC(C)C[C@H](NC(=O)[C@H](CCCCN)NC(=O)[C@H](CCC(N)=O)NC(=O)[C@H](Cc1c[nH]cn1)NC(=O)[C@H](Cc1c[nH]cn1)NC(=O)[C@@H](N)C(C)C)C(=O)N[C@H](C(=O)N[C@@H](Cc1ccccc1)C(=O)N[C@@H](Cc1ccccc1)C(=O)N[C@@H](C)C(=O)N[C@@H](CCC(=O)O)C(=O)N[C@@H](CC(=O)O)C(=O)N[C@H](C(=O)NCC(=O)N[C@@H](CO)C(=O)N[C@@H](CC(N)=O)C(=O)N[C@@H](CCCCN)C(=O)O)C(C)C)C(C)C` [Aβ12-28], in the data set on Biotin-huma7-5 [1], the IC50 turned out to be 400 nM.

Consider α-bungarotoxin [α-BTX], for which the “inhibition of 125I-β-amyloid1-40 binding to immobilized huma7” value in data set [2] was “can be inhibited”. Moreover, in the data set on Biotin-huma7-5 [3], the “% Inh @ 100 μM, Fluo-β-amyloid1-42 binding to Biotin-huma7-5” value stood at 100%. In the data set with Biotin-huma7-5 [1], the IC50 was determined as 100 nM.

The EC50 is the midpoint of the concentration-response curve. On to `CCCN(CCC)C1Cc2c(O)ccc(O)c2CC1C` (centres unmarked) [Inhibitor A], for which the concentration giving a half-maximal response (EC50) was 0.133 nM at α7nAChR (setting [5]) and 34700 nM at α7nAChR (setting [6]). The “inhibition of 125I-β-amyloid1-40 binding to immobilized huma7” value in data set [2] (10 μM inhibitors, FIG. 2) was “can be inhibited”.

Take `N[C@@H](Cc1ccc(O)cc1)C(=O)N1CCC[C@H]1C(=O)N[C@@H](Cc1c[nH]c2ccccc12)C(=O)N[C@@H](Cc1ccccc1)C(=O)O` [YPWF peptide, YPWF]: the figures for the EC50 at α7nAChR (setting [5]) and at α7nAChR (setting [6]) were 0.00351 nM and 20.3 nM, respectively.

Regarding 28 (ECCK) [compound 28], the “ACh rel % Inh @ 100 μM” value in data set [4] came to 87%.

Consider Aβ42: β-amyloid peptide1-42, for which the “% Inh @ 100 μM, Fluo-β-amyloid1-42 binding to Biotin-huma7-5” value with Biotin-huma7-5 [3] (100 μM, 100 nM Fluo-β-amyloid1-42, 1 hr at 25° C.) is reported as 85%.
